pIC50: −log10 of the molar value.
Experiments:
[1] = molecular target: IL-17A(FLAG-tagged): IL-17RA(His-tagged) (Homo sapiens, UniProt Q16552, K93Q); assay: IL-17A(FLAG-tagged): IL-17RA(His-tagged) binding disruption Eu-HTRF assay
In short: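 Compound (22-point, 2-fold series) was pre-incubated 1 h at rt with FLAG-IL-17A, added as a 2× solution (1 μM). A 2× mix of C-terminal 10×His IL-17RA, Eu-anti-FLAG donor and D2-anti-His acceptor in PBS/0.01% Triton X-100/200 mM KF was then added for 2 h at rt. The 665/615 nm ratio was fitted to one-site competition for IC50.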

[2] = system: IL-17A-induced G-CSF production in human normal keratinocyte (NHK); assay: NHK assay: IL-17A-induced G-CSF production in normal human keratinocytes; format: cell-based; conditions: IL-17A 5 ng/mL, 24 h
In short: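 Adult keratinocytes at 3000-4000 cells/well; recombinant human IL-17A pre-incubated 1 h at rt with titrated compound, then added to cells (final 5 ng/mL IL-17A, 0.2% DMSO, 5% FBS) for 24 h at 37 °C. Supernatant G-CSF quantified by HTRF against a standard curve to give IC50; viability checked by CellTiter-Glo versus DMSO.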

[3] = class of the average IC50 where tested more than once
[4] = Homo sapiens, Keratinocyte, class of the average IC50 where tested more than once

UniProt Q16552, sequence (Q16552 with tags, fused parts or gaps K93Q): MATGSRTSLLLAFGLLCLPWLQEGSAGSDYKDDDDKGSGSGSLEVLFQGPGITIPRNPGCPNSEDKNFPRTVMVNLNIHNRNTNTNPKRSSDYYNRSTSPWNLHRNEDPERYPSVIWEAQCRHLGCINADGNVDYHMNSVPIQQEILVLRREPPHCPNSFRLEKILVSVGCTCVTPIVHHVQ

O=C(N[C@H](c1cn2ncc(CC3CC(F)(F)CNC3=O)cc2n1)C1CCC(F)(F)CC1)c1nonc1C1CC1 (single isomer, unassigned) [Example 1, 4-Cyclopropyl-N—((S)-(7-(((R*)-5,5-difluoro-2-oxopiperidin-3-yl)methyl)imidazo[1,2-b]pyridazin-2-yl)(4,4-difluorocyclohexyl)methyl)-1,2,5-oxadiazole-3-carboxamide]
pIC50 [1, 3]: > 6.40 | pIC50 [2, 3]: > 6.40

CC1(Cc2cnn3cc([C@@H](NC(=O)c4nonc4C4CC4)C4CCC(F)(F)CC4)nc3c2)CCNC1=O (single isomer, unassigned) [Example 53, 4-Cyclopropyl-N—((S)-(4,4-difluorocyclohexyl)(7-(((R*)-3-methyl-2-oxopyrrolidin-3-yl)methyl)imidazo[1,2-b]pyridazin-2-yl)methyl)-1,2,5-oxadiazole-3-carboxamide]
pIC50 [1, 3]: 5.40 to 6.40 | pIC50 [2, 3]: 5.40 to 6.40

O=C(N[C@H](c1cn2ncc([C@@H](O)[C@@H]3C[C@@H](C(F)(F)F)NC3=O)cc2n1)C1CCC(F)(F)CC1)c1nonc1C1CC1 (relative stereo) [Example 72, 4-Cyclopropyl-N—((S)-(4,4-difluorocyclohexyl(7-((S*)-hydroxy((3S*,5S*)-2-oxo-5-(trifluoromethyl)pyrrolidin-3-yl)methyl)imidazo[1,2-b]pyridazin-2-yl)methyl)-1,2,5-oxadiazole-3-carboxamide]
pIC50 [1, 3]: 5.40 to 6.40 | pIC50 [2, 4]: 5.40 to 6.40

Cc1nonc1C(=O)N[C@H](c1cn2ncc(CC3(CC#N)C[C@@H](C(F)(F)F)NC3=O)cc2n1)C1CCC(F)(F)CC1 (single isomer, unassigned) [Example 103, N—((S)-(7-(((3S*,5S)-3-(Cyanomethyl)-2-oxo-5-(trifluoromethyl)pyrrolidin-3-yl)methyl)imidazo[1,2-b]pyridazin-2-yl)(4,4-difluorocyclohexyl)methyl)-4-methyl-1,2,5-oxadiazole-3-carboxamide]
pIC50 [1, 3]: > 6.40 | pIC50 [2, 4]: > 6.40

C[C@H]1C[C@H](Cc2cnn3cc([C@@H](NC(=O)c4nonc4C4CC4)C4CCC(F)(F)CC4)nc3c2)C(=O)N1 (relative stereo) [Example 83, 4-Cyclopropyl-N—((S)-(4,4-difluorocyclohexyl)(7-(((3S*,5S*)-5-methyl-2-oxopyrrolidin-3-yl)methyl)imidazo[1,2-b]pyridazin-2-yl)methyl)-1,2,5-oxadiazole-3-carboxamide]
pIC50 [1, 3]: > 6.40 | pIC50 [2, 4]: > 6.40

CC1(C)CC(Cc2cnn3cc([C@@H](NC(=O)c4nonc4C4CC4)C4CCC(F)(F)CC4)nc3c2)C(=O)N1 (single isomer, unassigned) [Example 13, 4-Cyclopropyl-N—[(S)-(4,4-difluorocyclohexyl)-[7-[[(3R*)-5,5-dimethyl-2-oxo-pyrrolidin-3-yl]methyl]imidazo[1,2-b]pyridazin-2-yl]methyl]-1,2,5-oxadiazole-3-carboxamide]
pIC50 [1, 3]: > 6.40 | pIC50 [2, 4]: 5.40 to 6.40

O=C(N[C@H](c1cn2ncc(C[C@@]34CC[C@H](C3)NC4=O)cc2n1)C1CCC(F)(F)CC1)c1nonc1C1CC1 (single isomer, unassigned) [Example 17]
pIC50 [1, 3]: 5.40 to 6.40 | pIC50 [2, 4]: < 5.40

O=C(N[C@H](c1cn2ncc(CC3C[C@@H](C4CC4)NC3=O)cc2n1)C1CCC(F)(F)CC1)c1nonc1C1CC1 (single isomer, unassigned) [Example 43, 4-Cyclopropyl-N—((S)-(7-(((3R*,5S)-5-cyclopropyl-2-oxopyrrolidin-3-yl)methyl)imidazo[1,2-b]pyridazin-2-yl)(4,4-difluorocyclohexyl)methyl)-1,2,5-oxadiazole-3-carboxamide]
pIC50 [1, 3]: 5.40 to 6.40 | pIC50 [2, 3]: < 5.40

CC1(Cc2cnn3cc([C@@H](NC(=O)c4nonc4C4CC4)C4CCC(F)(F)CC4)nc3c2)CCCNC1=O (single isomer, unassigned) [Example 28, 4-Cyclopropyl-N—((S)-(4,4-difluorocyclohexyl)(7-(((S*)-3-methyl-2-oxopiperidin-3-yl)methyl)imidazo[1,2-b]pyridazin-2-yl)methyl)-1,2,5-oxadiazole-3-carboxamide]
pIC50 [1, 3]: > 6.40 | pIC50 [2, 3]: 5.40 to 6.40

O=C(N[C@H](c1cn2ncc(C[C@H]3C(=O)NC[C@@H]3C(F)(F)F)cc2n1)C1CCC(F)(F)CC1)c1nonc1C1CC1 (relative stereo) [Example 101, 4-Cyclopropyl-N—[(S)-(4,4-difluorocyclohexyl)-[7-[[(3R*,4R*)-2-oxo-4-(trifluoromethyl)pyrrolidin-3-yl]methyl]imidazo[1,2-b]pyridazin-2-yl]methyl]-1,2,5-oxadiazole-3-carboxamide]
pIC50 [1, 3]: 5.40 to 6.40 | pIC50 [2, 4]: 5.40 to 6.40

COc1nonc1C(=O)N[C@@H](CCC(C)(C)C(F)(F)F)c1cn2ncc(CC3C[C@@H](C(F)(F)F)NC3=O)cc2n1 (single isomer, unassigned) [Example 6, 4-Methoxy-N-[(1S)-5,5,5-trifluoro-4,4-dimethyl-1-[7-[[(3S*,5S)-2-oxo-5-(trifluoromethyl)pyrrolidin-3-yl]methyl]imidazo[1,2-b]pyridazin-2-yl]pentyl]-1,2,5-oxadiazole-3-carboxamide]
pIC50 [1, 3]: > 6.40 | pIC50 [2, 3]: > 6.40

CC(C)n1nccc1C(=O)N[C@H](c1cn2ncc(C[C@H]3C[C@@H](C(F)(F)F)NC3=O)cc2n1)C1CCC(F)(F)CC1 [Example 51, N—((S)-(4,4-Difluorocyclohexyl)(7-(((3S,5S)-2-oxo-5-(trifluoromethyl)pyrrolidin-3-yl)methyl)imidazo[1,2-b]pyridazin-2-yl)methyl)-1-isopropyl-1H-pyrazole-5-carboxamide]
potency increase in the HTRF IC50 when compared to its C-3 epimer ([1]; (S)-configuration on C-3 (cis) vs (R)-epimer (trans): Example 51 vs 52, Example 59 vs 60): more than 100 fold | pIC50 [1, 3]: > 6.40 | pIC50 ([1]; value in brackets, Table 4): 6.82 | pIC50 [2, 4]: > 6.40 | pIC50 ([2]; Homo sapiens, Keratinocyte, value in brackets, Table 4): 7.30

C[C@@H]1C[C@H](Cc2cnn3cc([C@@H](NC(=O)c4nonc4C4CC4)C4CCC(F)(F)CC4)nc3c2)C(=O)N1 (relative stereo) [Example 85, 4-Cyclopropyl-N—((S)-(4,4-difluorocyclohexyl(7-(((3S*,5R*)-5-methyl-2-oxopyrrolidin-3-yl)methyl)imidazo[1,2-b]pyridazin-2-yl)methyl)-1,2,5-oxadiazole-3-carboxamide]
pIC50 [1, 3]: 5.40 to 6.40 | pIC50 [2, 4]: < 5.40

O=C(N[C@H](c1cn2ncc([C@@H]3C[C@]34C[C@@H](C(F)(F)F)NC4=O)cc2n1)C1CCC(F)(F)CC1)c1nonc1C1CC1 (relative stereo) [Example 39, 4-Cyclopropyl-N—((S)-(4,4-difluorocyclohexyl)(7-((S*,3S*,6S)-4-oxo-6-(trifluoromethyl)-5-azaspiro[2.4]heptan-1-yl)imidazo[1,2-b]pyridazin-2-yl)methyl)-1,2,5-oxadiazole-3-carboxamide]
pIC50 [1, 3]: < 5.40 | pIC50 [2, 4]: < 5.40

O=C(N[C@H](c1cn2ncc(C[C@H]3C[C@@H](C(F)(F)F)NC3=O)cc2n1)C1CCC(F)(F)CC1)c1nonc1C1CC1 (relative stereo) [Example 71, 4-Cyclopropyl-N—((S)-(4,4-difluorocyclohexyl)(7-(((3S*,5S*)-2-oxo-5-(trifluoromethyl)pyrrolidin-3-yl)methyl)imidazo[1,2-b]pyridazin-2-yl)methyl)-1,2,5-oxadiazole-3-carboxamide]
pIC50 [1, 3]: 5.40 to 6.40 | pIC50 [2, 4]: < 5.40

O=C(N[C@H](c1cn2ncc([C@H](O)[C@H]3C[C@@H](C(F)(F)F)NC3=O)cc2n1)C1CCC(F)(F)CC1)c1nonc1C1CC1 (relative stereo) [Example 77, 4-Cyclopropyl-N—((S)-(4,4-difluorocyclohexyl)(7-((R*)-hydroxy((3R*,5S*)-2-oxo-5-(trifluoromethyl)pyrrolidin-3-yl)methyl)imidazo[1,2-b]pyridazin-2-yl)methyl)-1,2,5-oxadiazole-3-carboxamide]
pIC50 [1, 3]: < 5.40 | pIC50 [2, 4]: 5.40 to 6.40

CC1(C)CNC(=O)C1Cc1cnn2cc([C@@H](NC(=O)c3nonc3C3CC3)C3CCC(F)(F)CC3)nc2c1 (single isomer, unassigned) [Example 15, 4-Cyclopropyl-N—[(S)-(4,4-difluorocyclohexyl)-[7-[[(3R*)-4,4-dimethyl-2-oxo-pyrrolidin-3-yl]methyl]imidazo[1,2-b]pyridazin-2-yl]methyl]-1,2,5-oxadiazole-3-carboxamide]
pIC50 [1, 3]: < 5.40 | pIC50 [2, 4]: < 5.40

CC(C)(CC[C@H](NC(=O)c1nonc1C1CC1)c1cn2ncc([C@H](O)[C@H]3C[C@@H](C(F)(F)F)NC3=O)cc2n1)C(F)(F)F (relative stereo) [Example 65, 4-Cyclopropyl-N—((S)-5,5,5-trifluoro-1-(7-((R*)-hydroxy((3R*,5S)-2-oxo-5-(trifluoromethyl)pyrrolidin-3-yl)methyl)imidazo[1,2-b]pyridazin-2-yl)-4,4-dimethylpentyl)-1,2,5-oxadiazole-3-carboxamide]
pIC50 [1, 3]: > 6.40 | pIC50 [2, 4]: > 6.40

Cc1nonc1C(=O)N[C@H](c1cn2ncc(C[C@@H]3CC[C@H](C(F)(F)F)NC3=O)cc2n1)C1CCC(F)(F)CC1 (relative stereo) [Example 48, N—((S)-(4,4-difluorocyclohexyl)7-(((3S*,6R*)-2-oxo-6-(trifluoromethyl)piperidin-3-yl)methyl)imidazo[1,2-b]pyridazin-2-yl)methyl)-4-methyl-1,2,5-oxadiazole-3-carboxamide]
pIC50 [1, 3]: < 5.40 | pIC50 [2, 4]: < 5.40

— US20260258048A1, “LACTAM-CONTAINING IMIDAZOPYRIDAZINE IL-17 INHIBITOR COMPOUNDS” (Janssen Pharmaceutica NV, priority 2023, published 2026)
